One data set has as its system acpP mRNA. The experiment in a line: RNA-seq, target mRNA depletion. On the set-up: key to acpP depletion (RNA-seq): -: Effect strength is represented by additional (+) signs.; Effect strength is represented by additional (+) signs.; ++: Effect strength is represented by additional (+) signs.; +++: Effect strength is represented by additional (+) signs. The conditions noted are these: for acpP depletion (RNA-seq): summary grade, ASO conjugated to the carrier peptide; for acpP mRNA depletion (in words): 5 µM KFF-ASO conjugate, 15 min, ~10^6 cfu/ml. Type of data set: cell-based, Salmonella enterica serovar Typhimurium strain SL1344. The procedure:
RNA isolation was performed using previously published protocols ([30],[31]). Bacterial overnight cultures were diluted 1:100 in fresh MHB and grown to OD600 0.5. The cultures were diluted to approximately 10^6 cfu/ml in non-cation-adjusted MHB. Afterwards, an aliquot of the bacterial solution was transferred into 5 ml low-binding tubes (LABsolute) containing the ASOs solution (adjusted such that the final concentration was 5 μM for all tested compounds). As a negative control, cells were treated with the respective volume of sterile nuclease-free water, which was used as solvent for the ASOs. After incubating the samples for 15 min at 37 °C, RNAprotect Bacteria (Qiagen) was added according to the manufacturer’s instructions. Following a 10-min incubation, cells were pelleted at 4 °C and 21,100 × g for 20 min. The supernatant was discarded and pellets were either directly used or stored at –20°C (<1 day) for subsequent bacterial RNA isolation.
Total RNA was purified from bacterial pellets using the miRNeasy Mini kit (Qiagen) according to protocol #3 described in ([30]). Briefly, cells were resuspended in 0.5 mg/ml lysozyme (Roth) in TE buffer (pH 8.0) and incubated for 5 min. Afterwards, RLT buffer supplemented with β-mercaptoethanol, and ethanol were added according to the manufacturer’s instructions. After sample loading, column wash-steps were performed according to the manual. RNA concentration was measured with a NanoDrop spectrophotometer.
For transcriptomic analyses, RNA samples were processed and subjected to RNA-seq at Core Unit SysMed (University of Würzburg, Germany). Sequencing was run using a previously published protocol ([31]). Briefly, RNA quality was checked using a 2100 Bioanalyzer with the RNA 6000 Pico/ Nano kit (Agilent Technologies). RNA samples were DNase-treated using DNAse I kit (Thermo Fisher), followed by ribosomal RNA depletion using Lexogen’s RiboCop META rRNA Depletion Kit protocol according to manufacturer’s recommendation. Subsequently, cDNA libraries suitable for sequencing were prepared using CORALL Total RNA-Seq Library Prep protocol (Lexogen) according to manufacturer’s recommendation with 14–25 PCR cycles. Library quality was checked using a 2100 Bioanalyzer with the DNA High Sensitivity kit (Agilent Technologies). Sequencing of pooled libraries, spiked with 5% PhiX control library, was performed at 10 million reads/sample in single-end mode with 75 nt read length on the NextSeq 500 platform (Illumina) using High output sequencing kits. Demultiplexed FASTQ files were generated with bcl2fastq2 v2.20.0.422 (Illumina).
RNA-seq data analysis was performed similarly to our previous analysis of PNA activity in S. enterica ([30]). Briefly, adapters and low-quality bases (Phred quality score <10) of raw reads were trimmed using BBduk. Then the RNA-seq reads were mapped to the S. enterica serovar Typhimurium reference genome and the three plasmids pSLT SL1344, pCol1B9 SL1344, and pRSF1010 SL1344 ([37]) using BBMap (v38.18) and genomic features were assigned using the featureCounts command of the Subread (2.0.1) package ([38]). For the coverage plots in Figure 8, the bamCoverage (v3.3.2) method of the deepTools platform was applied ([39]).
Downstream RNA-seq analysis was performed using packages from the R/Bioconductor project. Raw read counts of all conditions were imported into edgeR (v3.34.1) ([40]) and analysed for differential expression. To filter low-count reads, features with less than 1.38 counts per million (CPM) in at least 5 libraries were ignored for further analysis. The cutoff of 1.38 CPM was set to 10/L, with L being the minimum library size across all samples in millions, as described in ([41]). Libraries were normalized using edgeR’s trimmed mean of M values (TMM) normalization ([40]). The glmFit function was applied to estimate quasi-likelihood dispersions and contrasts for differential expression analysis were tested using the glmQLTest function. […]

In a further data set the test system is Salmonella. The experiment in a line: Salmonella growth assay. Type of data set: cell-based, Salmonella enterica serovar Typhimurium strain SL1344. On the set-up: key to Antibacterial activity: -: Effect strength is represented by additional (+) signs.; Effect strength is represented by additional (+) signs.; ++: Effect strength is represented by additional (+) signs.; +++: Effect strength is represented by additional (+) signs. The conditions noted are these: for Effect on Salmonella growth (in words): KFF-ASO conjugates or unconjugated peptide, 24 h growth kinetics, OD600, MHB, 37 °C, up to 10 µM; for Antibacterial activity: summary grade, ASO conjugated to the carrier peptide. The procedure:
An overnight bacterial cell culture was diluted 1:100 in fresh MHB and grown to OD600 0.5. The obtained culture was diluted to approximately 10^5 cfu/ml in non-cation-adjusted MHB. Subsequently, 190 µl bacterial solution was dispensed into a 96-well plate (Thermo Fisher Scientific) along with 10 µl of a 200 µM solution of the ASOs. Growth was monitored by measuring the OD at 600 nm every 20 min in a Synergy H1 plate reader (Biotek) with continuous double-orbital shaking (237 cpm) at 37 °C for 24 h.

Data set [1] has as its system Cy5 5'-labelled RNA, nucleotides -20 to +20 of acpP (target mRNA). The experiment in a line: Microscale thermophoresis (MST) binding affinity. The arrangement: species or system Salmonella enterica; key to Binding affinity (in vitro): -: Effect strength is represented by additional (+) signs.; Effect strength is represented by additional (+) signs.; ++: Effect strength is represented by additional (+) signs.; +++: Effect strength is represented by additional (+) signs. Conditions: unconjugated ASO; for Binding affinity (in vitro): summary grade. The procedure: For each binding experiment, Cy5 5’-labelled RNA (as described above) was diluted to 10 nM in Buffer A (50 mM Tris-HCl pH 7.6, 250 mM KCl, 5 mM MgCl2, 1 mM DTT, 5% glycerol supplemented with 0.05% Tween 20). A series of 16 tubes with different ASO dilutions (500 nM to 0.015 nM) were prepared in Buffer A. For measurements, each ASO dilution was mixed with one volume of labeled RNA, which led to a final concentration of 5.0 nM labeled RNA and 250 nM to 0.007 nM of ASOs. The reaction was mixed by pipetting and incubated for 30 min at RT in the dark. Capillary forces were used to load the samples into Monolith NT.115 Premium Capillaries; measurements were performed using a Monolith Pico instrument (NanoTemper Technologies Gmbh, Munich, Germany) at an ambient temperature of 25 °C. Instrument parameters were adjusted to 5% LED power, medium MST power, and MST on-time of 2.5 s. An initial fluorescence scan was performed across the capillaries to determine sample quality, which was followed by 16 thermophoresis measurements. […] Data of two independent measurements were analyzed for the ΔFnorm value determined by the MO Affinity Analysis software (NanoTemper Technologies Gmbh, Munich, Germany). The fitting for EC50 values was done using the Hill equation within the MO Affinity Analysis software. Data are presented as the mean EC50 values of two independent experiments.

Oligonucleotides are written 5' to 3', each unit as a sugar letter and its base; * is a phosphorothioate linkage, no mark a phosphodiester; rarer units and linkages stand in square brackets, end groups in braces. Plain capitals give the bases only. d = 2'-deoxy (DNA)

Regarding “DNA-PTO: 10mer phosphorothioate-modified DNA antisense oligomer, sequence CTCATACTCT, targeting acpP (antisense dC*dT*dC*dA*dT*dA*dC*dT*dC*dT)”, in the data set on acpP mRNA, the “acpP depletion (RNA-seq)” value was “-”. In the data set with Salmonella, the “Effect on Salmonella growth (in words)” value is “slight growth retardation was observed at 5 µM and 10 µM”; the Antibacterial activity result is “-”. Moreover, the “Binding affinity (in vitro)” value in data set [1] is reported as “-”. The “Binding affinity (EC50, nM)” value in data set [1] (MST, 5.0 nM labelled RNA, ASO 250 nM to 0.007 nM, 30 min RT, 25 °C, Hill fit, mean ± SD of two independent experiments) is “Could not be determined”.

As to “LNA: 10mer 2'-4'-locked RNA antisense oligomer, sequence CTCATACTCT, targeting acpP (all LNA, backbone and methylation of C not given here)”, in the data set on acpP mRNA, the “acpP mRNA depletion (in words)” value was “slight effect” and the “acpP depletion (RNA-seq)” value is “-”. Further, in the data set with Salmonella, the “Effect on Salmonella growth (in words)” value is “slight growth retardation was observed at 5 µM and 10 µM”; the Antibacterial activity entry is “-”. In addition, in data set [1], the “Binding affinity (in vitro)” value is “+++”.

Take “PMO: 10mer phosphorodiamidate morpholino antisense oligomer, sequence CTCATACTCT, targeting acpP (all phosphorodiamidate morpholino (PMO))”: the Antibacterial activity entry in the data set on Salmonella is “+”. Besides, the “Binding affinity (in vitro)” value in data set [1] is listed as “++”.

Turning to “PNA: 10mer peptide nucleic acid antisense oligomer, sequence CTCATACTCT, targeting acpP (all peptide nucleic acid (PNA))”, the “acpP mRNA depletion (in words)” value in the data set with acpP mRNA is recorded as “reduced the levels of acpP mRNA”. In addition, in the data set on Salmonella, the Antibacterial activity entry was “++”. Moreover, in data set [1], the “Binding affinity (in vitro)” value is “+++”.

Regarding “RNA-F: 10mer 2'-fluorinated RNA antisense oligomer, sequence CTCATACTCT, targeting acpP (all 2'-fluoro, backbone and T or U not given here)”, the “acpP depletion (RNA-seq)” value in the data set with acpP mRNA was “-”. Besides, in the data set on Salmonella, the “Effect on Salmonella growth (in words)” value is “slight growth retardation was observed at 5 µM and 10 µM”; the Antibacterial activity entry is recorded as “-”. Further, the “Binding affinity (in vitro)” value in data set [1] is “+”.

Consider “RNA-MOE: 10mer 2'-methoxyethylated RNA antisense oligomer, sequence CTCATACTCT, targeting acpP (all 2'-MOE, backbone and methylation of C not given here)”, for which, in the data set on acpP mRNA, the “acpP depletion (RNA-seq)” value was “-”. Moreover, in the data set with Salmonella, the “Effect on Salmonella growth (in words)” value is “slight growth retardation was observed at 5 µM and 10 µM”; the Antibacterial activity result is listed as “-”. The “Binding affinity (in vitro)” value in data set [1] is recorded as “+++”.

For the substance “RNA-OMe: 10mer 2'-methylated RNA antisense oligomer, sequence CTCATACTCT, targeting acpP (all 2'-O-methyl, backbone and T or U not given here)”, the “acpP depletion (RNA-seq)” value in the data set with acpP mRNA is recorded as “-”. Besides, in the data set on Salmonella, the “Effect on Salmonella growth (in words)” value is “no activity at all” and the Antibacterial activity result is given as “-”. Besides, the “Binding affinity (in vitro)” value in data set [1] is listed as “++”.

These data come from doi:10.1101/2023.07.11.548539v1, “A side-by-side comparison of peptide-delivered antisense antibiotics employing different nucleotide mimics” (bioRxiv, 2023).
